PMC7205193, “Crystal structure of the mitochondrial protein mitoNEET bound to a benze-sulfonide ligand” (Communications chemistry, 2019)
Several values for one entry are separate records, joined by “and”; a condition that tells them apart may be missing. Identical values can stand only once. Entries after “also recorded” stand apart in the source; their conditions may differ. Values belong to the molecule of their own block, whether it stands above or below them.

What was measured:
mitoNEET [1] = target: T1, mitoNEET (Homo sapiens, UniProt Q9NZ45); experiment: [3H]rosiglitazone displacement binding assay (SPA); conditions: 20 nM [3H]rosiglitazone, 60 min, room temperature, 50 mM Tris pH 8; ± std error
T1 sequence (Q9NZ45 32-108 limits assumed): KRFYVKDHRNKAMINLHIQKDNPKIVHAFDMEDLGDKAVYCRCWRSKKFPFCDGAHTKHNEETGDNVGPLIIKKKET
Experimental: Recombinant mitoNEET was attached to nickel scintillation proximity assay (SPA) beads, and incubated with 20 nM [^3H] rosiglitazone (PerkinElmer) for 60 min at room temperature. The binding buffer was 50 mM Tris pH 8. White clear bottom 96-well plates were used for the assay, and the counts per minute analyzed in a MicroBeta Counter (Perkin Elmer). Data were analyzed as fraction of the total binding using a one-site model with GrapPad Prism 6 statistical software.

N2A mouse neuronal cells = experiment: Seahorse bioenergetics mitochondrial stress test; assay type: cell-based; conditions: 20 μM, three hours, vs DMSO vehicle
Experimental: Mitochondrial bioenergetics were evaluated by the use of the Seahorse 96-well plate reader. Cells were grown in specialty plates from the company, at 20,000 cells per well of N2A mouse neuronal cells. The cells were treated with compounds at 20 μM for three hours, and then a mitochondrial stress test (Seahorse Biosciences) done using compounds which affect mitochondrial function, including oligomycin, FCCP, rotenone, and antimycin A.

[2] = target: T2, mitoNEET [2Fe-2S] cluster (Homo sapiens, UniProt Q9NZ45); experiment: Iron-sulfur cluster release assay; assay type: biochemical; conditions: 20 μM, pH 6.5, absorbance at 458 nm, room temperature
T2 sequence (Q9NZ45 with tags, fused parts or gaps): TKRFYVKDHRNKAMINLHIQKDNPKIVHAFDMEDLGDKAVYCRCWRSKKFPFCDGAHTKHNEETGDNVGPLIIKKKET
Experimental: This method was adapted as previously described. MitoNEET was prepared as described earlier and a stock of 4 mg/mL was used in the assay, in a 50 mM Tris buffer pH 8. […] In each well 80 μL of the appropriate buffer, with either vehicle or compound, and then mitoNEET protein was added at 20 μL. The 96-well plate was analyzed in a BioTek Synergy 4 plate reader, reading at 458 nm for a period of time, at room temperature. For the pH 8, we used 50 mM Tris pH 8, with 100 mM NaCl, and for the pH 6.5, we used the 50 mM Bis–Tris pH 6.5 with 100 mM NaCl buffer solution.

mitoNEET [3] = target: T1, mitoNEET; experiment: Surface plasmon resonance; conditions: SPR, PBST pH 7.4, 1% DMSO, 25 °C, one-to-one binding model; read-out: equilibrium dissociation constant Kd
Experimental: Experiments were performed using Reichert4SPR refractometer system (Reichert Technologies, Depew, NY, USA) equipped with a dextran SPR sensor chip (Reichert carboxymethyl dextran P/N 13206066). Acetate buffer was used for immobilization of the protein MN (ligand). […] Data analysis were performed with TraceDrawer software. Final Kd values were determined by fitting to a one-to-one binding model.

[4] = tested on: recombinant mitoNEET (mitoNEET-His protein); design: method as in PMID 27687671; conditions: read-out: IC50, binding to mitoNEET; cited from earlier work
[5] = Dynamic light scattering aggregate formation; assay type: physicochemical; conditions: 20 μM in PBS pH 7.4
Experimental: This stock solution was diluted into PBS pH 7.4 to a final concentration of 20 μM, and the evaluated using a Malvern DLS Nano-ZS-90 system (Malvern Instruments).

mitoNEET [6] = target: T1, mitoNEET; experiment: Pull-down capture assay with furosemide probe on streptavidin beads; assay type: binding; conditions: 0–100 μM furosemide, N2A cell lysate with recombinant mitoNEET, 100 μM probe, Western blot
Experimental: For the ELISA assay, streptavidin plates (Pierce) were incubated for 30 min with a dose-dilution of the probe, after which an equal amount of recombinant mitoNEET protein was placed into the wells. After 2 h incubation at 4 °C, the plate was washed with a wash buffer with PBS pH 7.4 containing 0.05% Tween-20. The amount of mitoNEET was determine using a mitoNEET primary antibody (ProteinTech) 1:1000, followed by secondary anti-rabbit horseradish peroxidase antibody 1:2000 for 1 h. Detection of the color was done at 450 nm after addition of 3,3′,5,5′-tetramethylbenzidine solution and stopping solutions (Pierce). For the capture assay, N2A cells were lysed and collected with radio-immunoprecipitation assay buffer. […] At the end of the experiment, a magnetic tube rack was used to attract the magnetic beads. The solutions were washed with PBST (pH 7.4, 0.05% Tween-20), boiled for 5 min, and run on a BioRad 4–20% gel for Western Blot analysis (mitoNEET primary antibody 1:1000 and secondary HPR 1:2000).

[7] = target: the molecule itself; experiment: crystal structure; mitoNEET (20 mg/ml) with equimolar furosemide, sitting drop vapor diffusion, 60% v/v Tacsimate pH 7.0; 1.95 Å; MR-SAD with PDB 3REE as search model

IC50 (mitoNEET [1]): 81 µM and 81.4 µM
Molecule: CCCNc1cc(Cl)c(S(N)(=O)=O)cc1C(=O)O [2a]

IC50 (mitoNEET [1]): 42.6 ± 1.03 µM
Molecule: CCCCNc1cc(Cl)c(S(N)(=O)=O)cc1C(=O)O [2b]

IC50 (mitoNEET [1]): 54.3 ± 0.92 µM
Molecule: CCCCCNc1cc(Cl)c(S(N)(=O)=O)cc1C(=O)O [2c]

IC50 (mitoNEET [1]): 9.12 ± 1.04 µM
Molecule: CCCCCCNc1cc(Cl)c(S(N)(=O)=O)cc1C(=O)O [2d]

IC50 (mitoNEET [1]): 19.8 ± 0.9 µM
Molecule: CCCCCCCNc1cc(Cl)c(S(N)(=O)=O)cc1C(=O)O [2e]

IC50 (mitoNEET [1]): 6.2 µM and 6.24 µM | melting point: 184 to 185 °C
Molecule: CCCCCCCCNc1cc(Cl)c(S(N)(=O)=O)cc1C(=O)O [2f]
ATP-linked oxygen consumption (N2A mouse neuronal cells): increase | basal respiration (oxygen consumption rate) (N2A mouse neuronal cells): increase | maximal respiration (N2A mouse neuronal cells): increase

IC50 (mitoNEET [1]): 20.7 µM and 20.8 µM
Molecule: NS(=O)(=O)c1cc(C(=O)O)c(NCc2ccccc2)cc1Cl [2l]
ATP-linked oxygen consumption (N2A mouse neuronal cells): increase | basal respiration (oxygen consumption rate) (N2A mouse neuronal cells): increase | maximal respiration (N2A mouse neuronal cells): increase

IC50 (mitoNEET [1]): 8.82 ± 1 µM
Molecule: NS(=O)(=O)c1cc(C(=O)O)c(NCc2ccc(F)cc2)cc1Cl [2n]

IC50 (mitoNEET [1]): 12.4 ± 1.23 µM
Molecule: NS(=O)(=O)c1cc(C(=O)O)c(NCc2cccs2)cc1Cl [2p]

IC50 (mitoNEET [1]): 2.93 ± 1.06 µM
Molecule: CCCCC/C=C\C/C=C\C/C=C\C/C=C\CCCC(=O)O [Arachidonic acid, reference compound]

iron-sulfur cluster release from mitoNEET [2]: able to slow down cluster release | iron-sulfur cluster release from mitoNEET ([2]; listed as furosemide): able to reduce cluster loss | IC50 (mitoNEET [1]): 29.3 ± 0.97 µM | Kd (mitoNEET [3]): 53.5 µM | aggregate formation in solution (DLS) [5]: did not observe any aggregate formation
Molecule: NS(=O)(=O)c1cc(C(=O)O)c(NCc2ccco2)cc1Cl [Furosemide, furosemide]
basal respiration (oxygen consumption rate) (N2A mouse neuronal cells): increase | maximal respiration (N2A mouse neuronal cells): increase | proton leak (N2A mouse neuronal cells): trended to increase | IC50 [4]: ~40 µM | mitoNEET captured by furosemide probe in presence of competitor (mitoNEET [6]): dose-dependently the reduction of mitoNEET captured; also recorded: able to reduce the amount of mitoNEET captured

IC50 (mitoNEET [1]): 1021 ± 0.96 µM
Molecule: NS(=O)(=O)c1cc(C(=O)O)c(Cl)cc1Cl [compound 1, 2,4-dichloro-5-sulfamoylbenzoic acid, reference compound]

B1: soluble domain of human mitoNEET (domain or fragment)
chain: TKRFYVKDHRNKAMINLHIQKDNPKIVHAFDMEDLGDKAVYCRCWRSKKFPFCDGAHTKHNEETGDNVGPLIIKKKET
notes: mitoNEET (gene cisd1), human, soluble domain; Each subunit holds a [2Fe-2S] cluster (His87 and three cysteines); also called mN; MN; source: E. coli Rosetta 2 (DE3), purified (Ni-NTA, SUMO protease digestion, second Ni-NTA, size exclusion chromatography); not shown: His-SUMO, N-terminal, cleaved
binding result [7]: binds
